Measurements from PMC5129256 (International Journal of Environmental Research and Public …, 2016).
Read-outs that look alike come from different tables or passages of the source.

Experiments:
LMH cells [1] = conditions: for Viability of LMH Cells (%) ± SD / IC50 (%): MTT; for IC50 (%): from dose-response curves
LMH cells [2] = conditions: PrestoBlue; for Viability of LMH Cells (%) ±S.E.M.: 24 h
[3] = test system: human adenocarcinoma cell line HT-29; design: method as in PMID 14642818; conditions: HT-29, 20 mM (or 0.04%); cited from earlier work
human skin fibroblasts = conditions: MTS assay; cited from earlier work
[4] = test system: human colon adenocarcinoma cell line Caco-2; design: method as in ref 39 = [39]; 39. Olejnik A. Schmidt M. Wojnarowska K. Grajek W. The influence of toxic digestive metabolites on the proliferation and DNA damage of epithelial intestinal cells in vitro Food Sci. Technol. Qual. 200; conditions: Caco-2, concentrations as low as 10^-6 M; cited from earlier work
laboratory mice = conditions: mouse, in vivo; cited from earlier work

## N [Ammonium]
LMH cells [1]; 0.004%, 24 h
  Viability of LMH Cells (%) ± SD: 97.6 ± 4.3%
LMH cells [1]; 0.004%, 48 h
  Viability of LMH Cells (%) ± SD: 95.6 ± 2.9%
LMH cells [1]; 0.004%, 72 h
  Viability of LMH Cells (%) ± SD: 101.9 ± 5.0%
LMH cells [1]; 0.008%, 24 h
  Viability of LMH Cells (%) ± SD: 98.0 ± 3.0%
LMH cells [1]; 0.008%, 48 h
  Viability of LMH Cells (%) ± SD: 96.8 ± 1.3%
LMH cells [1]; 0.008%, 72 h
  Viability of LMH Cells (%) ± SD: 104.8 ± 2.6%
LMH cells [1]; 0.016%, 24 h
  Viability of LMH Cells (%) ± SD: 93.3 ± 2.8%
LMH cells [1]; 0.016%, 48 h
  Viability of LMH Cells (%) ± SD: 81.4 ± 5.2 %
LMH cells [1]; 0.063%, 24 h
  Viability of LMH Cells (%) ± SD: 61.9 ± 2.0 %
LMH cells [1]; 0.063%, 48 h
  Viability of LMH Cells (%) ± SD: 28.3 ± 1.3 %
LMH cells [1]; 0.063%, 72 h
  Viability of LMH Cells (%) ± SD: 13.8 ± 1.2 %
LMH cells [1]; 0.125%, 24 h
  Viability of LMH Cells (%) ± SD: 18.1 ± 0.8 %
LMH cells [1]; 0.125%, 48 h
  Viability of LMH Cells (%) ± SD: 7.1 ± 0.8 %
LMH cells [1]; 0.125%, 72 h
  Viability of LMH Cells (%) ± SD: 10.0 ± 1.3 %
LMH cells [1]; 0.25%, 24 h
  Viability of LMH Cells (%) ± SD: 5.4 ± 0.1 %
LMH cells [1]; 0.25%, 48 h
  Viability of LMH Cells (%) ± SD: 1.6 ± 0.2 %
LMH cells [1]; 0.25%, 72 h
  Viability of LMH Cells (%) ± SD: 2.9 ± 0.1 %
LMH cells [1]; 0.5%, 24 h
  Viability of LMH Cells (%) ± SD: 5.9 ± 0.2 %
LMH cells [1]; 0.5%, 48 h
  Viability of LMH Cells (%) ± SD: 2.1 ± 0.2 %
LMH cells [1]; 0.5%, 72 h
  Viability of LMH Cells (%) ± SD: 2.8 ± 0.2 %
LMH cells [1]; 1.0%, 24 h
  Viability of LMH Cells (%) ± SD: 13.1 ± 0.1 %
LMH cells [1]; 1.0%, 48 h
  Viability of LMH Cells (%) ± SD: 1.7 ± 0.2 %
LMH cells [1]; 1.0%, 72 h
  Viability of LMH Cells (%) ± SD: 5.8 ± 0.1 %
LMH cells [1]; 24 h exposure
  IC50 (%): 0.08%
LMH cells [1]; 48 h exposure
  IC50 (%): 0.04%
LMH cells [1]; 72 h exposure
  IC50 (%): 0.02%
LMH cells [1]; […], 24 h
  Viability of LMH Cells (%) ± SD: 96.4 ± 1.2%
LMH cells [1]; […], 48 h
  Viability of LMH Cells (%) ± SD: 65.5 ± 4.0 %
LMH cells [1]; […], 72 h
  Viability of LMH Cells (%) ± SD: 31.6 ± 2.1 %
LMH cells [2]; 0.004%
  Viability of LMH Cells (%) ±S.E.M.: 99.7 ± 5.8%
LMH cells [2]; 0.008%
  Viability of LMH Cells (%) ±S.E.M.: 99.0 ± 10.1%
LMH cells [2]; 0.016%
  Viability of LMH Cells (%) ±S.E.M.: 100.2 ± 8.1%
LMH cells [2]; 0.063%
  Viability of LMH Cells (%) ±S.E.M.: 51.1 ± 7.1 %
LMH cells [2]; 0.125%
  Viability of LMH Cells (%) ±S.E.M.: 24.6 ± 6.3 %
LMH cells [2]; 0.25%
  Viability of LMH Cells (%) ±S.E.M.: 5.7 ± 1.1 %
LMH cells [2]; 0.5%
  Viability of LMH Cells (%) ±S.E.M.: 4.6 ± 0.6 %
LMH cells [2]; 1.0%
  Viability of LMH Cells (%) ±S.E.M.: 4.7 ± 0.7 %
LMH cells [2]; 24 h exposure, from dose-response curves
  IC50 (%): 0.07%
LMH cells [2]; […]
  Viability of LMH Cells (%) ±S.E.M.: 99.1 ± 4.9%
[3]
  effect on proliferation: almost suppressed proliferation
Human skin fibroblasts
  IC50: 9.4 mM

## Oc1ccccc1 [Phenol]
LMH cells [1]
  cytotoxicity (in words): not cytotoxic
LMH cells [1]; chicken
  cytotoxicity: 85.5%
[4]
  cell proliferation and cell survival: 56%
Laboratory mice
  concentration reducing the respiratory rate by 50%: 166 ppm
